From patent publication US9615577B2, “Herbicidally active cyclic dione compounds, or derivatives therefor, substituted by a phenyl which has an alkynyl-containing substituent” (Syngenta Limited, priority 2012, dated 2017)

Assays:
Type in all cases: in vivo
[1] = system: Echinochloa crus-galli (ECHCG); experiment: Test 1B glasshouse assay for herbicidal activity, post-emergence; conditions: Echinochloa crus-galli; for pest or weed control at 30 g/ha: 30 g/ha application rate; for pest or weed control at 125 g/ha: 125 g/ha application rate; for pest or weed control at 60 g/ha: 60 g/ha application rate
Description: (§1) Seeds of a variety of monocotyledonous and dicotyledonous test plants are sown in standard soil in pots. The plants are cultivated for one day (for pre-emergence) or for about 12 days (range=10-13 days) (for post-emergence) under controlled conditions in a glasshouse (warm climate species at 24/18° C., cool climate species at 20/16° C., both at day/night; 16 hours light; 65% humidity).
(§2) An “instant formulation”, known as the “IF50”, containing 50 g/liter (i.e. 5% w/v) of the “technical” (i.e. unformulated) active ingredient is prepared by dissolving the active ingredient in a mixture of organic solvents and emulsifier, details of which are provided in the Table below. This IF50 is then mixed with a small, variable amount of acetone to aid dissolution, before addition of a 0.2% v/v aqueous solution of the adjuvant X-77 (which is a mixture of alkyl aryl polyoxyethylene glycols and free fatty acids in isopropanol, CAS Registry number 11097-66-8), as the aqueous diluent, to form an aqueous spray solution which contains a predetermined concentration of the active ingredient (which varies depending on the application rate of the active ingredient to the plants) and 0.2% v/v of the adjuvant X-77. This aqueous spray solution is then sprayed onto the plants, after one day's cultivation (for pre-emergence) or after about 12 days' cultivation (for post-emergence).
(§3) The test plants are then grown on, in a glasshouse (greenhouse) under controlled conditions (at either 24/18° C. or 20/16° C. (day/night) as mentioned above; 16 hours light; 65% humidity) and are watered twice daily. Either 15 days after application of the herbicide (15 DAA) (for post-emergence), or 20 days after application of the herbicide (20 DAA) (for pre-emergence), the test plants are evaluated visually, and an assessed percentage phytotoxicity score is given for each herbicidal application on each plant species (where 100%=total damage to plant; 0%=no damage to plant).
(§4) Warm climate (“warm season”) grassy monocotyledonous weeds: Setaria faberi (SETFA), SORVU (Sorghum bicolor (L.) Moench ssp. Bicolor, or Sorghum vulgare Pers.), Digitaria sanguinalis (DIGSA), Echinochloa crus-galli (ECHCG), and Brachiaria plantaginea (BRAPL).
Note: The herbicidal activity data (e.g. post-emergence) shown above in Biological Example 1B for Comparator compounds X-9 and X-10 is thought likely to have been measured some years ago, probably using a variant of the above-described test method. Also, for the post-emergence activity of X-9 and X-10 it is not currently known exactly how many days after application of the herbicide the phytotoxicity on the plants was measured.

[2] = system: Setaria faberi (SETFA); experiment: Test 1A glasshouse assay for herbicidal activity, post-emergence; conditions: 312 h, evaluated after 13 days, read-out: percentage phytotoxicity SETFA
Procedure, shortened: (§5)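 Test plants grew from seed in standard soil under controlled glasshouse conditions (24/16 °C, 14 h light, 65% humidity) and received an aqueous acetone (50:50) spray with 0.5% Tween 20, either one day after sowing or after eight days. Damage was rated visually as percent phytotoxicity 13 days later.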

[3] = system: Setaria faberi (SETFA); experiment: Test 1B glasshouse assay for herbicidal activity, post-emergence; conditions: 360 h; for pest or weed control at 30 g/ha: 30 g/ha application rate; for pest or weed control at 125 g/ha: 125 g/ha application rate; for pest or weed control at 60 g/ha: 60 g/ha application rate
Description: as §1, §2, §3, §4

[4] = system: Digitaria sanguinalis (DIGSA); experiment: as above; conditions: 360 h; for pest or weed control at 30 g/ha: 30 g/ha application rate; for pest or weed control at 125 g/ha: 125 g/ha application rate; for pest or weed control at 60 g/ha: 60 g/ha application rate
Description: as §1, §2, §3, §4

[5] = system: SORVU (Sorghum bicolor (L.) Moench ssp. Bicolor, or Sorghum vulgare Pers.); experiment: as above; conditions: 360 h; for pest or weed control at 30 g/ha: 30 g/ha application rate; for pest or weed control at 125 g/ha: 125 g/ha application rate; for pest or weed control at 60 g/ha: 60 g/ha application rate
Description: as §1, §2, §3, §4

[6] = system: Lolium perenne (LOLPE); experiment: as above; conditions: 360 h; for pest or weed control at 30 g/ha: 30 g/ha application rate; for pest or weed control at 125 g/ha: 125 g/ha application rate; for pest or weed control at 60 g/ha: 60 g/ha application rate
Description: as §1, §2, §3
(§6) Cool climate (“cool season”) grassy monocotyledonous weeds: Alopecurus myosuroides (ALOMY), Avena fatua (AVEFA), Lolium perenne (LOLPE).

[7] = system: Alopecurus myosuroides (ALOMY); experiment: as above; conditions: 360 h; for pest or weed control at 30 g/ha: 30 g/ha application rate; for pest or weed control at 125 g/ha: 125 g/ha application rate; for pest or weed control at 60 g/ha: 60 g/ha application rate
Description: as §1, §2, §3, §6

[8] = system: Avena fatua (AVEFA); experiment: as above; conditions: 360 h; for pest or weed control at 30 g/ha: 30 g/ha application rate; for pest or weed control at 125 g/ha: 125 g/ha application rate; for pest or weed control at 60 g/ha: 60 g/ha application rate
Description: as §1, §2, §3, §6

[9] = system: Setaria faberi (SETFA); experiment: Test 1A glasshouse assay for herbicidal activity, pre-emergence; conditions: 312 h, evaluated after 13 days, read-out: percentage phytotoxicity SETFA
Procedure, shortened: as §5

[10] = system: Echinochloa crus-galli (ECHCG); experiment: as above; conditions: 312 h, evaluated after 13 days, read-out: percentage phytotoxicity ECHCG
Procedure, shortened: as §5

[11] = system: Amaranthus retroflexus (AMARE); experiment: as above; conditions: 312 h, evaluated after 13 days, read-out: percentage phytotoxicity AMARE
Procedure, shortened: as §5

[12] = system: Alopecurus myosuroides (ALOMY); experiment: as above; conditions: 312 h, evaluated after 13 days, read-out: percentage phytotoxicity ALOMY
Procedure, shortened: as §5

[13] = system: Glycine max (GLXMA, soybean); experiment: Test 1B glasshouse assay for herbicidal activity, pre-emergence; conditions: 480 h, 20 DAA, read-out: percentage phytotoxicity GLXMA
Description: as §1, §2, §3
(§7) Warm climate crop plants: Glycine max (GLXMA, soybean).

[14] = system: Glycine max (GLXMA, soybean); experiment: Test 1B glasshouse assay for herbicidal activity, post-emergence; conditions: 360 h; for plant injury at 30 g/ha: 30 g/ha application rate; for plant injury at 125 g/ha: 125 g/ha application rate; for plant injury at 60 g/ha: 60 g/ha application rate
Description: as §1, §2, §3, §7

[15] = system: Lolium perenne (LOLPE); experiment: Test 1B glasshouse assay for herbicidal activity, pre-emergence; conditions: 480 h, 20 DAA, read-out: percentage phytotoxicity LOLPE
Description: as §1, §2, §3, §6

[16] = system: Alopecurus myosuroides (ALOMY); experiment: as above; conditions: 480 h, 20 DAA, read-out: percentage phytotoxicity ALOMY
Description: as §1, §2, §3, §6

[17] = system: Avena fatua (AVEFA); experiment: as above; conditions: 480 h, 20 DAA, read-out: percentage phytotoxicity AVEFA
Description: as §1, §2, §3, §6

SMILES	pest or weed control at 30 g/ha [1] [%]	pest or weed control at 125 g/ha [1] [%]	pest or weed control at 30 g/ha [2] [%]	pest or weed control at 250 g/ha [2] [%]	pest or weed control at 30 g/ha [3] [%]	pest or weed control at 125 g/ha [3] [%]	pest or weed control at 30 g/ha [4] [%]	pest or weed control at 125 g/ha [4] [%]	pest or weed control at 30 g/ha [5] [%]	pest or weed control at 125 g/ha [5] [%]	pest or weed control at 30 g/ha [6] [%]	pest or weed control at 125 g/ha [6] [%]	pest or weed control at 30 g/ha [7] [%]	pest or weed control at 125 g/ha [7] [%]	pest or weed control at 30 g/ha [8] [%]	pest or weed control at 125 g/ha [8] [%]	pest or weed control at 250 g/ha [9] [%]	pest or weed control at 250 g/ha [10] [%]	pest or weed control at 250 g/ha [11] [%]	pest or weed control at 250 g/ha [12] [%]	other results
CC#Cc1cc(Cl)c(C2C(=O)C3CCC(C3)C2=O)c(OCC)c1 (stereo not drawn) [Compound A-16]	80	100	100	100	80	100	80	100	80	100	20	70	20	80	0	60	100	100	80	100	plant injury at 250 g/ha [13]: 20%; plant injury at 30 g/ha [14]: 0%; plant injury at 125 g/ha [14]: 30%; pest or weed control at 250 g/ha [15]: 70%; pest or weed control at 250 g/ha [16]: 50%; pest or weed control at 250 g/ha [17]: 40%
CC#Cc1cc(C)c(C2C(=O)CC(c3ccccn3)CC2=O)c(C)c1 (stereo not drawn) [Compound A-13]		80	90	100		80		80		80		70		30		20	100	100	80	100	pest or weed control at 30 g/ha ([9]; 30 g/ha): 70%; pest or weed control at 30 g/ha ([10]; 30 g/ha): 100%; pest or weed control at 30 g/ha ([11]; 30 g/ha): 100%; pest or weed control at 30 g/ha ([12]; 30 g/ha): 70%; plant injury at 250 g/ha [13]: 20%; plant injury at 125 g/ha [14]: 60%; pest or weed control at 250 g/ha [15]: 100%; pest or weed control at 250 g/ha [16]: 80%; pest or weed control at 250 g/ha [17]: 30%
Cc1cc(C#CCl)cc(C)c1C1C(=O)C2CCC(C2)C1=O (stereo not drawn) [Compound A-6]	90			90	100		100		90		40		50		50		100	100	30	100	pest or weed control at 60 g/ha [1]: 90%; pest or weed control at 62.5 g/ha ([2]; 62.5 g/ha): 90%; pest or weed control at 60 g/ha [3]: 100%; pest or weed control at 60 g/ha [4]: 100%; pest or weed control at 60 g/ha [5]: 90%; pest or weed control at 60 g/ha [6]: 70%; pest or weed control at 60 g/ha [7]: 50%; pest or weed control at 60 g/ha [8]: 60%; plant injury at 125 g/ha [13]: 0%; plant injury at 30 g/ha [14]: 0%; plant injury at 60 g/ha [14]: 0%; pest or weed control at 125 g/ha [15]: 80%; pest or weed control at 125 g/ha [16]: 60%; pest or weed control at 125 g/ha [17]: 40%
CC#Cc1ccc(C2C(=O)C(C)(C)OC(C)(C)C2=O)c(C)c1 [Compound A-1]				70													90	80	0	90	pest or weed control at 60 g/ha [1]: 90%; pest or weed control at 60 g/ha [3]: 70%; pest or weed control at 60 g/ha [4]: 80%; pest or weed control at 60 g/ha [5]: 0%; pest or weed control at 60 g/ha [6]: 80%; pest or weed control at 60 g/ha [7]: 80%; pest or weed control at 60 g/ha [8]: 60%; plant injury at 500 g/ha ([13]; 500 g/ha): 10%; plant injury at 60 g/ha [14]: 70%; pest or weed control at 500 g/ha ([15]; 500 g/ha): 100%; pest or weed control at 500 g/ha ([16]; 500 g/ha): 70%; pest or weed control at 500 g/ha ([17]; 500 g/ha): 10%
CC#Cc1cc(C)c(C2=C(OC(C)=O)CC(c3ccccn3)CC2=O)c(C)c1 (stereo not drawn) [Compound A-15]	80	100	100	100	80	100	90	100	80	100	80	90	70	80	60	80	100	100	40	100	plant injury at 125 g/ha [13]: 10%; plant injury at 30 g/ha [14]: 20%; plant injury at 125 g/ha [14]: 60%; pest or weed control at 125 g/ha [15]: 90%; pest or weed control at 125 g/ha [16]: 80%; pest or weed control at 125 g/ha [17]: 50%
